The source of these data is ChEMBL document CHEMBL1806489, “Synthesis and biological evaluation of novel F-18 labeled pyrazolo[1,5-a]pyrimidine derivatives: potential PET imaging agents for tumor detection” (Bioorg Med Chem Lett, 2011).

Series [1] deals with Mus musculus. The series is described as follows: Biodistribution in mouse S180 cells xenografted Kunming mouse excretory organ at 3.7 MBq, iv after 30 mins by PET imaging analysis. The series is classed as ADME, organism-based, CCRF S-180. The following applies: in vivo, 0.5 h.
In series [2] the test system is Lung. The experiment in a line: Biodistribution in mouse S180 cells xenografted Kunming mouse lung at 370 kBq/0.1 mL, iv after 120 mins by gamma counting. The series is classed as ADME, organism-based, CCRF S-180. Conditions: in vivo, 2 h; call rule not given here.
Series [3] has as its system Spleen. The experiment in a line: Biodistribution in mouse S180 cells xenografted Kunming mouse spleen at 370 kBq/0.1 mL, iv after 120 mins by gamma counting. The series is classed as ADME, organism-based, CCRF S-180. The following applies: in vivo, 2 h.
The test system of series [4] is Mus musculus. The experiment in a line: Biodistribution in mouse S180 cells xenografted Kunming mouse right forelimb of tumor at 3.7 MBq, iv after 30 mins by PET imaging analysis. It counts as ADME, organism-based, Neoplasm, CCRF S-180. The following applies: in vivo, 0.5 h.
Series [5] relates to Nucleic Acid. The series is described as follows: Ratio of drug level in tumor to blood in mouse S180 cells xenografted Kunming mouse at 370 kBq/0.1 mL, iv after 120 mins by gamma counting. The following applies: tumour, 2 h. It counts as ADME, organism-based, CCRF S-180.
The subject of series [6] is Nucleic Acid. The experiment in a line: Ratio of drug level in tumor to brain in mouse S180 cells xenografted Kunming mouse at 370 kBq/0.1 mL, iv after 120 mins by gamma counting. It counts as ADME, organism-based, CCRF S-180. Conditions: in vivo, 2 h.
Another series has as its system Plasma. The series is described as follows: Metabolic stability in mouse plasma at 3.7 MBq after 1 to 2 hrs. It counts as ADME, cell-free.
Series [7] concerns Spleen. The series is described as follows: Biodistribution in mouse S180 cells xenografted Kunming mouse spleen at 370 kBq/0.1 mL, iv after 5 mins by gamma counting. The series is classed as ADME, organism-based, CCRF S-180. Conditions: in vivo.
In series [8] the test system is Spleen. The series is described as follows: Biodistribution in mouse S180 cells xenografted Kunming mouse spleen at 370 kBq/0.1 mL, iv after 15 mins by gamma counting. The series is classed as ADME, organism-based, CCRF S-180. The following applies: in vivo, 0.25 h.
Series [9] relates to Spleen. The experiment in a line: Biodistribution in mouse S180 cells xenografted Kunming mouse spleen at 370 kBq/0.1 mL, iv after 30 mins by gamma counting. It counts as ADME, organism-based, CCRF S-180. Conditions: in vivo, 0.5 h.
Series [10] has as its system Nucleic Acid. The experiment in a line: Ratio of drug level in tumor to blood in mouse S180 cells xenografted Kunming mouse at 370 kBq/0.1 mL, iv after 5 mins by gamma counting. The following applies: tumour. It counts as ADME, organism-based, CCRF S-180.
The test system of the next series is Brain. The series is described as follows: Biodistribution in mouse S180 cells xenografted Kunming mouse brain at 370 kBq/0.1 mL, iv after 120 mins by gamma counting. It counts as ADME, organism-based, CCRF S-180. Conditions: in vivo, 2 h.
Series [11] concerns Nucleic Acid. The experiment in a line: Ratio of drug level in tumor to muscle in mouse S180 cells xenografted Kunming mouse at 370 kBq/0.1 mL, iv after 15 mins by gamma counting. The following applies: in vivo, 0.25 h. It counts as ADME, organism-based, CCRF S-180.
Series [12] has as its system Blood. The series is described as follows: Biodistribution in mouse S180 cells xenografted Kunming mouse blood at 370 kBq/0.1 mL, iv after 5 mins by gamma counting. It counts as ADME, organism-based, CCRF S-180. Conditions: in vivo.
The next series concerns Heart. The series is described as follows: Biodistribution in mouse S180 cells xenografted Kunming mouse heart at 370 kBq/0.1 mL, iv after 30 mins by gamma counting. The series is classed as ADME, organism-based, CCRF S-180. Conditions: in vivo, 0.5 h.
The subject of series [13] is Nucleic Acid. The series is described as follows: Ratio of drug level in tumor to brain in mouse S180 cells xenografted Kunming mouse at 370 kBq/0.1 mL, iv after 60 mins by gamma counting. The following applies: in vivo, 1 h. It counts as ADME, organism-based, CCRF S-180.
Series [14] concerns Mus musculus. The series is described as follows: Biodistribution in mouse S180 cells xenografted Kunming mouse left forelimb of tumor at 3.7 MBq, iv after 30 mins by PET imaging analysis. Conditions: in vivo, 0.5 h. It counts as ADME, organism-based, Neoplasm, CCRF S-180.
The subject of series [15] is Nucleic Acid. The series is described as follows: Ratio of drug level in tumor to muscle in mouse S180 cells xenografted Kunming mouse at 370 kBq/0.1 mL, iv after 120 mins by gamma counting. It counts as ADME, organism-based, CCRF S-180. Conditions: in vivo, 2 h.
A short description of series [16]: Partition coefficient, log P of the compound. The following applies: octanol/water. The series is classed as physicochemical.
Another series has as its system CCRF S-180. The series is described as follows: Cellular uptake in mouse S180 cells after 30 mins. The series is classed as ADME, cell-based. Conditions: ccrf s-180, 0.5 h.
For series [17], the system named is Nucleic Acid. The series is described as follows: Ratio of drug level in tumor to brain in mouse S180 cells xenografted Kunming mouse at 370 kBq/0.1 mL, iv after 30 mins by gamma counting. The series is classed as ADME, organism-based, CCRF S-180. The following applies: in vivo, 0.5 h.
In series [18] the test system is Mus musculus. The series is described as follows: Biodistribution in mouse S180 cells xenografted Kunming mouse tumor at 370 kBq/0.1 mL, iv after 60 mins by gamma counting. The series is classed as ADME, organism-based, Neoplasm, CCRF S-180. The following applies: in vivo, 1 h.
For series [19], the system named is Blood. The experiment in a line: Biodistribution in mouse S180 cells xenografted Kunming mouse blood at 370 kBq/0.1 mL, iv after 120 mins by gamma counting. The series is classed as ADME, organism-based, CCRF S-180. The following applies: in vivo, 2 h.
The test system of a further series is Kidney. The series is described as follows: Biodistribution in mouse S180 cells xenografted Kunming mouse kidney at 370 kBq/0.1 mL, iv after 5 mins by gamma counting. It counts as ADME, organism-based, CCRF S-180. The following applies: in vivo.
The test system of series [20] is Lung. The experiment in a line: Biodistribution in mouse S180 cells xenografted Kunming mouse lung at 370 kBq/0.1 mL, iv after 60 mins by gamma counting. The series is classed as ADME, organism-based, CCRF S-180. Conditions: in vivo, 1 h.

`Cc1cc(NCC[18F])n2ncc(C#N)c2n1`: the Drug uptake result is “Active” in the series with Mus musculus [1]; 2.54 % ID/g in the series on Lung [2]; 2.15 % ID/g in the series on Spleen [3]; “Not Active” with Mus musculus [4]; 4.66 % ID/g in the series with Spleen [7]; 3.42 % ID/g with Spleen [8]. Also, the Drug uptake in the series on Spleen [9] is given as 3.43 % ID/g; in the series with Brain, 1.79 % ID/g; in the series on Blood [12], 4.83 % ID/g; in the series on Heart, 4.06 % ID/g; in the series with Mus musculus [14], “Active”; in the series with CCRF S-180 it was “Active”. Besides, the Drug uptake is 2.95 % ID/g in the series with Mus musculus [18], 2.95 % ID/g with Blood [19], 7.93 % ID/g in the series with Kidney and 2.78 % ID/g in the series on Lung [20]. Moreover, the Ratio in the series on Nucleic Acid [5] was determined as 0.98; with Nucleic Acid [6], 1.61; in the series on Nucleic Acid [10], 0.39; in the series with Nucleic Acid [11], 1.14; in the series on Nucleic Acid [13] it was 1.53; with Nucleic Acid [15], 1.09. For the same compound, the Ratio in the series with Nucleic Acid [17] came out at 2.23. Besides, the Stability result in the series with Plasma is on record as “Stable”. Moreover, the log partition coefficient (logP) in series [16] is 0.68.
With `Cc1cc(NCCNC(=O)c2ccc([N+](=O)[O-])cc2[18F])n2ncc(C#N)c2n1`, the Drug uptake in the series with Lung [2] is reported as 0.19 % ID/g; with Spleen [3] it was 0.14 % ID/g; in the series on Spleen [7], 4.54 % ID/g; in the series with Spleen [8] it was 1.96 % ID/g; in the series on Spleen [9] it was 0.99 % ID/g; with Brain it was 0.04 % ID/g. Also, the Drug uptake in the series with Blood [12] was 5.23 % ID/g; in the series with Heart, 1.16 % ID/g; in the series with Mus musculus [18] it was 0.74 % ID/g; in the series on Blood [19], 0.09 % ID/g; in the series on Kidney it was 17.7 % ID/g; in the series on Lung [20], 0.56 % ID/g. The Ratio with Nucleic Acid [5] is reported as 2.5; in the series on Nucleic Acid [6] it was 5.13; in the series on Nucleic Acid [10], 0.43; with Nucleic Acid [11], 0.96; in the series on Nucleic Acid [13], 8.69; in the series with Nucleic Acid [15] it was 0.77. For the same compound, the Ratio with Nucleic Acid [17] is 10.44. The Stability result in the series with Plasma was “Stable”. Besides, the logP in series [16] turned out to be 0.69.
